Read-outs that look alike come from different tables or passages of the source.
Experiments:
M. polytrota = test: Antibiotic susceptibility of producing strain; type: cell-based, Micromonospora polytrota; details: for Growth in the presence of 50 mcg/ml antibiotic: M. polytrota; for sensitivity of M. polytrota: concentration not given
Procedure: Test antibiotics were dissolved in the appropriate solvent at a concentration based on an activity of 1000 mcg/ml. Stock solutions were diluted in sterile distilled water to a final concentration of 500 mcg/ml and filter sterilized ([…] filters, Millipore Corporation). To 10 ml of the sterile antibiotic solutions, 90 ml of melted agar consisting of yeast extract, 10 g; dextrose, 10 g; agar, 15 g; tap water, 1000 ml; […] cooled to 45° C. was added, and 20 ml of the resulting mixture was aseptically pipetted into sterile petri dishes (100×150 mm). The final concentration of each antibiotic in the agar was 50 mcg/ml.

[1] = tested on: Antibiotic AR-5 Sensitive strains; test: In vivo mouse protection test, Antibiotic AR-5 sensitive strains; set-up: species or system male (Carworth CF-1) mice; details: for ED50: Mus musculus, Antibiotic AR-5 sensitive strains, number of strains averaged in parentheses, read-out: Mean PD50; for oral potency relative to erythromycin and rosaramicin (fold more potent): in vivo PD50, in general
Procedure: (§1) In vivo mouse protection tests were performed in male (Carworth CF-1) mice weighing 18-20 g each. Infection was with about 10^7 organisms per mouse or sufficient inocula to cause death of control groups 24 to 48 hours after infection. The infecting organisms included strains of Staphylococcus Enterococcus, β-hemolytic Streptococcus and E. coli.

[2] = tested on: Antibiotic AR-5 Resistant strains; test: In vivo mouse protection test, Antibiotic AR-5 resistant strains; set-up: species or system male (Carworth CF-1) mice; details: read-out: Mean PD50
Procedure: as §1

Acute toxicity in mice = details: mouse, in vivo, male CF-1 mice, survivors at 24 and 48 hours
Procedure: The acute toxicity determinations were carried out with groups of male (Carworth CF-1) mice weighing 18-20 g. LD50 values […] the dose that was lethal to 50% of the mice) were calculated by probit analysis based on the number of survivors at 24 and 48 hours after dosing.

[3] = Serum levels of the antibiotics; type: in vivo; details: mice, rats and dogs
Procedure: The serum levels of the respective antibiotics were measured in mice, rats and dogs.

For `NC[C@H]1O[C@H](O[C@H]2[C@H](O)[C@@H](O[C@H]3O[C@H](CO)[C@@H](O)[C@H](N)[C@H]3O)[C@H](N)C[C@@H]2N)[C@H](O)[C@@H](O)[C@@H]1O` [Kanamycin], the “Growth in the presence of 50 mcg/ml antibiotic” value (shortened to “Growth in the presence”) (M. polytrota) was “grows”.

In the case of `CCC[C@@H]1C[C@@H](C(=O)N[C@@H]([C@H]2O[C@H](SC)[C@H](O)[C@@H](O)[C@H]2O)[C@@H](C)O)N(C)C1` [Lincomycin], the “Growth in the presence” value (M. polytrota) is reported as “grows”.

In the case of `CC[C@H]1OC(=O)C[C@@H](O)[C@H](C)[C@@H](O[C@@H]2O[C@H](C)C[C@H](N(C)C)[C@H]2O)[C@@H](CC=O)C[C@@H](C)C(=O)/C=C/[C@]2(C)O[C@H]2[C@@H]1C` [F, Rosaramicin, reference compound], the ED50 ([1]; sc) is reported as 8.3 mg/kg, the ED50 ([1]; oral) is reported as 181 mg/kg and the ED50 ([2]; po) is reported as 400 mg/kg. For the same compound, the ED50 ([2]; sc) was 100 mg/kg, the LD50 (Acute toxicity in mice; ip) was 260 mg/kg and the LD50 (Acute toxicity in mice; iv) was 175 mg/kg. For the same compound, the LD50 (Acute toxicity in mice; oral) was 1300 mg/kg and the “sensitivity of M. polytrota” value (M. polytrota) was “exhibits sensitivity”.

For `CCC1OC(=O)/C=C/C(C)C(OC2OC(C)CC(N(C)C)C2O)C(C)CC(C)C(=O)/C=C/C2OC2C1COC1OC(C)C(O)C(OC)C1OC` (stereo not drawn) [A, Antibiotic AR-5 component 1], the ED50 ([1]; sc) was 4 mg/kg, the ED50 ([1]; oral) was 4.1 mg/kg and the “oral potency relative to erythromycin and rosaramicin (fold more potent)” value ([1]; oral) was 30-40 fold. For the same compound, the “duration of therapeutic serum levels” value [3] was “produces therapeutic serum levels of greater duration”, the ED50 ([2]; po) was 100 mg/kg and the ED50 ([2]; sc) was 100 mg/kg. For the same compound, the LD50 (Acute toxicity in mice; ip) was 310 mg/kg and the LD50 (Acute toxicity in mice; iv) was 140 mg/kg.

With `CN[C@@H]1[C@@H](O)[C@@H](O[C@@H]2[C@@H](O)[C@H](O[C@H]3OC(CN)=CC[C@H]3N)[C@@H](N)C[C@H]2N)OC[C@]1(C)O` [Sisomicin] the “Growth in the presence” value (M. polytrota) was “grows”.

In the case of `CCC1OC(=O)/C=C/C(C)C(OC2OC(C)CC(N(C)C)C2O)C(C)CC(C)C(=O)/C=C/C=C/C1COC1OC(C)C(O)C(OC)C1OC` (stereo not drawn) [B, 12,13-desepoxy AR-5 component 1], the ED50 ([1]; sc) is reported as 2.5 mg/kg, the ED50 ([1]; oral) is reported as 3.8 mg/kg and the “oral potency relative to erythromycin and rosaramicin (fold more potent)” value ([1]; oral) is reported as 30-40 fold. For the same compound, the ED50 ([2]; po) was 100 mg/kg, the ED50 ([2]; sc) was 100 mg/kg and the LD50 (Acute toxicity in mice; ip) was 275 mg/kg. For the same compound, the LD50 (Acute toxicity in mice; iv) was 160 mg/kg.

For `CC[C@H]1OC(=O)[C@H](C)[C@@H](O[C@H]2C[C@@](C)(OC)[C@@H](O)[C@H](C)O2)[C@H](C)[C@@H](O[C@@H]2O[C@H](C)C[C@H](N(C)C)[C@H]2O)[C@](C)(O)C[C@@H](C)C(=O)[C@H](C)[C@@H](O)[C@]1(C)O` [E, Erythromycin, reference compound], the ED50 ([1]; sc) was 13.3 mg/kg, the ED50 ([1]; oral) was 135 mg/kg and the ED50 ([2]; po) was 400 mg/kg. For the same compound, the ED50 ([2]; sc) was 100 mg/kg, the LD50 (Acute toxicity in mice; ip) was 355 mg/kg and the LD50 (Acute toxicity in mice; iv) was 260 mg/kg.

With Gentamicin the “Growth in the presence” value (M. polytrota) was “grows”.

With `O=C(N[C@H](CO)[C@H](O)c1ccc([N+](=O)[O-])cc1)C(Cl)Cl` [Chloramphenicol] the “sensitivity of M. polytrota” value (M. polytrota) was “exhibits sensitivity”.

For `CCC[C@@H]1C[C@@H](C(=O)N[C@@H]([C@H]2O[C@H](SC)[C@H](O)[C@@H](O)[C@H]2O)[C@H](C)Cl)N(C)C1` [Clindamycin], the “Growth in the presence” value (M. polytrota) was “grows”.

In the case of `CCC1OC(=O)/C=C/C(C)C(OC2OC(C)CC(N(C)C)C2O)C(C)CC(C)C(=O)/C=C/C2OC2C1(O)COC1OC(C)C(O)C(OC)C1OC` (stereo not drawn) [C, Antibiotic AR-5 component 2], the ED50 ([1]; sc) is reported as 5.1 mg/kg, the ED50 ([1]; oral) is reported as 35.8 mg/kg and the “time of peak serum levels” value ([3]; versus the other antibiotics tested) is reported as “produces peak serum levels earlier than any of the other antibiotics tested”. It also gave an ED50 ([2]; po) of 100 mg/kg, an ED50 ([2]; sc) of 100 mg/kg and an LD50 (Acute toxicity in mice; ip) of 610 mg/kg. It also gave an LD50 (Acute toxicity in mice; iv) of 310 mg/kg.

— patent publication US4367287A, “Process of producing antibiotic AR-5 complex” (Schering Corporation, priority 1981, dated 1983)
